From publication PMC3459870, “Hit-to-Lead Development of the Chamigrane Endoperoxide Merulin A for the Treatment of African Sleeping Sickness” (PLoS ONE, 2012)
Where two headings read alike, the source gives them in different places.

Legend:
[1] = tested on: Trypanosoma brucei brucei strain 427–221; experiment: Trypanosome screening assay (CellTiter-Glo ATP bioluminescence, 48 h); assay type: cell-based; conditions: for IC50: Trypanosoma brucei
Description: Trypanosoma brucei brucei strain 427–221 were grown at 37°C, 5% CO2 in HMI-9 medium containing 10% Fetal Bovine Serum, 10% Serum Plus (JRH Inc., Lenexa, KS,USA) and penicillin/streptomycin.
T.b.b. 427–221 were diluted to 2.10^4 per ml in complete HMI-9 medium and aliquoted in Greiner sterile 384-well flat white opaque culture plates using a WellMate cell dispenser from Matrix Tech. (Hudson, NH, USA). Test compounds were serially diluted in dimethyl sulfoxide (DMSO) and added to the assay plates with the robotic dispenser Biomek FXp liquid handler (Beckman Coulter). Thimerosal (2 µM final concentration) was added as a positive control and DMSO as a negative control (1% final concentration). Trypanosomes were incubated with compounds for 48 hours at 37°C with 5% CO2 before monitoring cell viability as previously described. Briefly, trypanosomes were lysed in the wells by adding 25 µL of CellTiter-GloTM (Promega). The lysed trypanosomes were placed on an orbital shaker at room temperature for 2 minutes. After lysis, the resulting ATP-bioluminescence was measured at room temperature using an Analyst HT plate reader (Molecular Devices). Percentage inhibition of parasite growth was calculated for each well as [1−(RLUx−RLU+)/(RLU−−RLU+)]*100 where RLUx, RLU+ and RLU− are respectively the Relative Light Units for each well, positive (thimerosal) and negative (DMSO) controls. A screening window coefficient, denoted Z′ factor, was used to evaluate the performance of the assay. The Z′ factor, calculated as 1−(3σc++3σc−)/(μc+−μc−) where σc+, σc−, μc+ and μc− are respectively the standard deviation and mean values of positive and negative controls, is reflective of the assay signal dynamic range and the data variation associated with signal measurement. IC50's were calculated using Prism (GraphPad).

HeLa cells = experiment: HeLa toxicity screening assay (nuclei count by imaging, 17 h); assay type: cell-based, human; conditions: Homo sapiens, HeLa; Figure 4
Description: (§1) HeLa cells were plated at a density of 2,000 cells per well into two 384 well clear bottom plates (Costar 3712) in DMEM with 10% FBS. After 24 hours incubation at 37°C with 5% CO2 the cells were pinned with 200 nL of a two-fold serial dilution of merulin analogues. After 17 hours of treatment at 37°C in 5% CO2 the plates were fixed with 4% formaldehyde and washed with PBS (BioTek ELx405). After 10 minutes in PBS with 0.5% TritonX-100 each plate was washed and blocked with 2% Bovine Serum Albumin in PBS. Nuclei were stained with Hoechst 33342 then washed and placed in 40 µL of PBS with 0.1% sodium azide. Plates were imaged using the ImageXpress Micro epifluorescent scope (Molecular Devices). MetaXpress software was used to quantify total number of cells and IC50s were calculated using Prism (GraphPad).

T98-G cells = experiment: Glioblastoma toxicity screening assay (nuclei count by imaging, 17 h); assay type: cell-based; conditions: Homo sapiens, T98G; Figure 4
Description: as §1, with “T98-G cells (ATTC” for “HeLa cells were”, “T98-G cells (ATTC number: CRL-1690) were plated” for “HeLa cells were plated”

[2] = text and Figures 1, 3, bloodstream form, read-out: IC50 against T. brucei brucei
[3] = Figure 4, bloodstream form, read-out: T.b.b IC50

IC50 [1, 3]	SMILES	IC50 (HeLa cells)	IC50 (T98-G cells)	other results
0.26 µM	CC1(C)CCC(=O)[C@@]2(C)OO[C@H]3C[C@@]12CC[C@H]3OC(=O)c1ccc2c(c1)OCCO2 [compound 13, (3S,4R,6aS,10aS)-7,7,10a-trimethyl-10-oxooctahydro-3H-3,6a-methanobenzo[c][1,2]dioxocin-4-yl 2,3-dihydrobenzo[b][1,4]dioxine-6-carboxylate]	28 µM	> 50 µM	
0.11 µM	CC1(C)CCC(=O)[C@@]2(C)OO[C@H]3C[C@@]12CC[C@H]3OC(=O)c1ccc(C2CCCCC2)cc1 [compound 16, (3S,4R,6aS,10aS)-7,7,10a-trimethyl-10-oxooctahydro-3H-3,6a-methanobenzo[c][1,2]dioxocin-4-yl 4-cyclohexylbenzoate]	13 µM	> 50 µM	
0.7 µM	Cc1ncc(C(=O)O[C@@H]2CC[C@@]34C[C@@H]2OO[C@]3(C)C(=O)CCC4(C)C)s1 [compound 18, (3S,4R,6aS,10aS)-7,7,10a-trimethyl-10-oxooctahydro-3H-3,6a-methanobenzo[c][1,2]dioxocin-4-yl 2-methylthiazole-5-carboxylate]	> 50 µM	> 50 µM	
0.66 µM	CC1(C)CCC(=O)[C@@]2(C)OO[C@H]3C[C@@]12CC[C@H]3OC(=O)c1cnc(Br)s1 [compound 19, (3S,4R,6aS,10aS)-7,7,10a-trimethyl-10-oxooctahydro-3H-3,6a-methanobenzo[c][1,2]dioxocin-4-yl 2-bromothiazole-5-carboxylate]	13 µM	> 50 µM	
0.33 µM	CC1(C)CCC(=O)[C@@]2(C)OO[C@H]3C[C@@]12CC[C@H]3OC(=O)c1ccsc1 [compound 20, (3S,4R,6aS,10aS)-7,7,10a-trimethyl-10-oxooctahydro-3H-3,6a-methanobenzo[c][1,2]dioxocin-4-yl thiophene-3-carboxylate]	16 µM	> 50 µM	

The remaining lines, values behind:

SMILES	IC50 [1, 3]	IC50 (HeLa cells)	IC50 (T98-G cells)	other results
NCCCC(N)(C(=O)O)C(F)F (stereo not shown) [Eflornithine, reference compound]				IC50 ([1]; Table 3, read-out: T.b.b IC50): 59 µM
CC1(C)CCC(=O)C2(C)OOC3CC12CCC3(O)CO (stereo not shown) [Merulin B (6), Merulin B]				IC50 ([1]; Table 3, read-out: T.b.b IC50): 8 µM
CC1(C)C=CC(=O)[C@@]2(C)OO[C@@H]3C[C@]12CCC3(O)CO (stereo partly shown) [Merulin C (7), Merulin C]				IC50 ([1]; Table 3, read-out: T.b.b IC50): 0.8 µM
N=C(N)c1ccc(OCCCCCOc2ccc(C(=N)N)cc2)cc1 [Pentamidine, reference compound]				IC50 ([1]; Table 3, read-out: T.b.b IC50): 0.03 µM
Cc1ccc(C(=O)Nc2ccc(S(=O)(=O)O)c3cc(S(=O)(=O)O)cc(S(=O)(=O)O)c23)cc1NC(=O)c1cccc(NC(=O)Nc2cccc(C(=O)Nc3cc(C(=O)Nc4ccc(S(=O)(=O)O)c5cc(S(=O)(=O)O)cc(S(=O)(=O)O)c45)ccc3C)c2)c1 [Suramin, reference compound]				IC50 ([1]; Table 3, read-out: T.b.b IC50): 0.007 µM
CC1(C)CC[C@@H](O)[C@@]2(C)OO[C@H]3C[C@@]12CC[C@H]3O [compound 8, (3S,4R,6aS,10R,10aS)-7,7,10a-trimethyloctahydro-3H-3,6a-methanobenzo[c][1,2]dioxocine-4,10-diol]				IC50 [1, 2]: > 50 µM
CC1(C)CCC(=O)[C@@](C)(O)[C@]12CC[C@@H](O)[C@@H](O)C2 [compound 9, (1S,6S,8S,9R)-1,8,9-trihydroxy-1,5,5-trimethylspiro[5.5]undecan-2-one]				IC50 [1, 2]: > 50 µM; activity against T. brucei brucei in words ([1]; initial SAR series): complete loss of activity
CC(=O)O[C@@H]1CC[C@@]23C[C@@H]1OO[C@]2(C)C(=O)CCC3(C)C [compound 10, (3S,4R,6aS,10aS)-7,7,10a-trimethyl-10-oxooctahydro-3H-3,6a-methanobenzo[c][1,2]dioxocin-4-yl acetate]				IC50 [1, 2]: 14 µM
CC(C)(C)C(=O)O[C@@H]1CC[C@@]23C[C@@H]1OO[C@]2(C)C(=O)CCC3(C)C [compound 11, (3S,4R,6aS,10aS)-7,7,10a-trimethyl-10-oxooctahydro-3H-3,6a-methanobenzo[c][1,2]dioxocin-4-yl pivalate]				IC50 [1, 2]: 8 µM
CC1(C)CCC(=O)[C@@]2(C)OO[C@H]3C[C@@]12CC[C@H]3OC(=O)C1COc2ccccc2O1 (stereo partly drawn) [compound 12, (3S,4R,6aS,10aS)-7,7,10a-trimethyl-10-oxooctahydro-3H-3,6a-methanobenzo[c][1,2]dioxocin-4-yl 2,3-dihydrobenzo[b][1,4]dioxine-2-carboxylate]		> 50 µM	> 50 µM	IC50 ([1]; Table 3, read-out: T.b.b IC50): 0.06 µM
CC1(C)CCC(=O)[C@@]2(C)OO[C@H]3C[C@@]12CC[C@H]3OC(=O)c1cc2ccccc2oc1=O [compound 14, (3S,4R,6aS,10aS)-7,7,10a-trimethyl-10-oxooctahydro-3H-3,6a-methanobenzo[c][1,2]dioxocin-4-yl 2-oxo-2H-chromene-3-carboxylate]	0.42 µM	> 50 µM	> 50 µM	
CC1(C)CCC(=O)[C@@]2(C)OO[C@H]3C[C@@]12CC[C@H]3OC(=O)c1cccc(-c2ccccc2)c1 [compound 15, (3S,4R,6aS,10aS)-7,7,10a-trimethyl-10-oxooctahydro-3H-3,6a-methanobenzo[c][1,2]dioxocin-4-yl [1,1′-biphenyl]-3-carboxylate]	0.24 µM	> 50 µM	> 50 µM	
CC1(C)CCC(=O)[C@@]2(C)OO[C@H]3C[C@@]12CC[C@H]3OC(=O)Cc1cccc2ccccc12 [compound 17, (3S,4R,6aS,10aS)-7,7,10a-trimethyl-10-oxooctahydro-3H-3,6a-methanobenzo[c][1,2]dioxocin-4-yl 2-(naphthalen-1-yl)acetate]		13 µM	> 50 µM	IC50 ([1]; bloodstream form, read-out: IC50 against T. brucei): 0.043 µM
CC1(C)CCC(=O)[C@@]2(C)OO[C@H]3C[C@@]12CC[C@H]3OC(=O)c1cc(Cl)sc1Cl [compound 21, (3S,4R,6aS,10aS)-7,7,10a-trimethyl-10-oxooctahydro-3H-3,6a-methanobenzo[c][1,2]dioxocin-4-yl 2,5-dichlorothiophene-3-carboxylate]	0.54 µM	21 µM	> 50 µM	
CC1(C)CCC(=O)[C@@]2(C)OO[C@H]3C[C@@]12CC[C@H]3OC(=O)c1cc(-c2ccccc2)no1 [compound 22, (3S,4R,6aS,10aS)-7,7,10a-trimethyl-10-oxooctahydro-3H-3,6a-methanobenzo[c][1,2]dioxocin-4-yl 3-phenylisoxazole-5-carboxylate]	0.19 µM	> 50 µM	20 µM	
CC1(C)CCC(=O)[C@@]2(C)OO[C@H]3C[C@@]12CC[C@H]3OC(=O)c1ccno1 [compound 23, (3S,4R,6aS,10aS)-7,7,10a-trimethyl-10-oxooctahydro-3H-3,6a-methanobenzo[c][1,2]dioxocin-4-yl isoxazole-5-carboxylate]	1.8 µM	> 50 µM	> 50 µM	
CC1(C)CCC(=O)[C@@]2(C)OO[C@H]3C[C@@]12CC[C@H]3OC(=O)c1ccc(N2CCOCC2)cc1 [compound 24, (3S,4R,6aS,10aS)-7,7,10a-trimethyl-10-oxooctahydro-3H-3,6a-methanobenzo[c][1,2]dioxocin-4-yl 4-morpholinobenzoate]	0.27 µM	12 µM	> 50 µM	
CC1(C)CCC(=O)[C@@]2(C)OO[C@H]3C[C@@]12CC[C@H]3OC(=O)c1ccncc1 [compound 25, (3S,4R,6aS,10aS)-7,7,10a-trimethyl-10-oxooctahydro-3H-3,6a-methanobenzo[c][1,2]dioxocin-4-yl isonicotinate]	0.95 µM	> 50 µM	> 50 µM	
